Data taken from patent publication US12636311B2, “Topically administered strontium-containing complexes for treating pain, pruritis and inflammation” (Galleon Labs LLC, priority 2012, dated 2026).

Columns and labels:
[1] = system: synchronous neurotransmitter release in response to TCN activation; conditions: strontium substitutes for calcium; cited from earlier work
[2] = system: TCN activation by 70% glycolic acid peel; conditions: strontium mixed with 70% glycolic acid, pH 0.6; cited from earlier work
brachioradial pruritus = assay: Brachioradial pruritus, itch severity reported by subject; assay type: in vivo, human; conditions: topical treatment, moderate to severe itch
From the text: A person suffered from brachioradial pruritus for over 20 years, a neuropathic condition that is believed to be caused by compression of cervical nerves that innervate the mid-back and arms. They experienced moderate to severe itching typically most intense on their arms, neck and shoulders.
During the last several years, the subject treated their condition with either strontium alone (4% or 6% elemental strontium) and with a spray formulation of strontium+ Gallic Acid+ NAC. […] Reapplication 3 or 4 times over a 10-20 minute period increased that anti-itch benefit and reduced the itching by about 50%. […] If itching remained, a second spray eliminated the remaining itching.
Subsequent blinded tests were performed in which either 4% strontium only or 6% strontium only was directly compared to 4% strontium+ Gallic Acid+ NAC. Since the subject's brachioradial pruritus typically produced itching of approximately equal intensity on both arms in a bilaterally-symmetrical pattern, strontium alone was applied to one arm and strontium+ Gallic Acid+ NAC was applied to the contralateral arm in a double-blinded manner and itch severity was reported by the subject.

Row | Structure (SMILES) | Reduction of amplitude of synchronous neurotransmitter release [1] | Suppression of burning pain and stinging [2] | Anti-itch benefit (in words) (brachioradial pruritus)
1 | [Sr+2] [strontium] | more than 90% | ≥ 80% | 
2 | C[C@]12CCC(=O)C=C1CC[C@@H]1[C@@H]2[C@@H](O)C[C@@]2(C)[C@H]1CC[C@]2(O)C(=O)CO [hydrocortisone] |  |  | no anti-itch benefit
3 | CN(C)CCOC(c1ccccc1)c1ccccc1 [diphenhydramine] |  |  | limited benefit only when the itching was mild
